# Laboratory results from ChEMBL document CHEMBL1143795, “Synthesis and antimalarial activity of new 1,12-bis(N,N'-acetamidinyl)dodecane derivatives” (Bioorg Med Chem Lett, 2007).
# Key:
# [1] = system: Plasmodium vinckei petteri; test: Antimalarial activity against Plasmodium vinckei petteri 279BY infected intraperitoneal dosed Swiss mice (Mus musculus); type: functional; details: ip
# [2] = system: Plasmodium vinckei petteri; test: Antimalarial activity against Plasmodium vinckei petteri 279BY infected peroral dosed Swiss mice (Mus musculus); type: functional; details: po
# Plasmodium falciparum [3] = test: Antimalarial activity against Plasmodium falciparum Nigerian; type: functional, organism-based
# Plasmodium falciparum [4] = test: microbe, parasite or virus in culture; details: FCM29
# Description: Antimalarial activity against Plasmodium falciparum FCM29
# Plasmodium falciparum [5] = test: microbe, parasite or virus in culture; details: W2
# Description: Antimalarial activity against Plasmodium falciparum W2
IC50 (Plasmodium falciparum [3]),IC50 (Plasmodium falciparum [4]),IC50 (Plasmodium falciparum [5]),Structure (SMILES),ED50 [1],ED50 [2]
0.012 µM,,,C/C(=N\OS(C)(=O)=O)NCCCCCCCCCCCCN/C(C)=N/OS(C)(=O)=O,4.7 mg/kg,42 mg/kg
7.1 µM,,,Cc1noc(=O)n1CCCCCCCCCCCCn1c(C)noc1=O,> 9 mg/kg,62 mg/kg
0.093 µM,,,CCNC(=O)O/N=C(\C)NCCCCCCCCCCCCN/C(C)=N/OC(=O)NCC,> 10 mg/kg,> 90 mg/kg
0.0687 µM,,,C/C(=N\OC(=O)c1ccccc1)NCCCCCCCCCCCCN/C(C)=N/OC(=O)c1ccccc1,> 9 mg/kg,> 90 mg/kg
1.8 µM,,,CC(=O)O/N=C(\C)NCCCCCCCCCCCCN/C(C)=N/OC(C)=O,7.1 mg/kg,> 90 mg/kg
0.31 µM,,,C/C(=N\O)NCCCCCCCCCCCCN/C(C)=N/O,9.2 mg/kg,90 mg/kg
0.135 µM,,,C/C(=N\OC(=O)Nc1ccccc1)NCCCCCCCCCCCCN/C(C)=N/OC(=O)Nc1ccccc1,10 mg/kg,> 90 mg/kg
,0.004 µM,0.0081 µM,CC(=N)NCCCCCCCCCCCCNC(C)=N,3.1 mg/kg,> 200 mg/kg
0.0096 µM,,,CCOP(=O)(OCC)O/N=C(\C)NCCCCCCCCCCCCN/C(C)=N/OP(=O)(OCC)OCC,> 9 mg/kg,> 90 mg/kg
4.35 µM,,,CO/N=C(\C)NCCCCCCCCCCCCN/C(C)=N/OC,> 10 mg/kg,110 mg/kg
